Earlier results as cited in patent publication US20120035247A1, “RNA Interference Mediated Inhibition of Signal Transducer and Activator of Transcription 6 (STAT6) Gene Expression Using Short Interfering Nucleic Acid (siNA)” (Merck Sharp & Dohme Corp., priority 2009, published 2012).

Columns and labels:
[1] = system: eosinophilia and AHR; settings: rat model of allergic disease; cited from earlier work
[2] = system: mouse spleen T cells; settings: in vitro; cited from earlier work

NC(=O)c1cnc(Nc2ccc(N3CCOCC3)cc2)nc1NCc1c(F)ccc(F)c1F [YM341619]
inhibited: AHR [1] | eosinophilia [1] | differentiation of mouse spleen T cells into the Th2 phenotype [2]
